From ChEMBL document CHEMBL4706583, “2-Anilinoquinoline based arylamides as broad spectrum anticancer agents with B-RAF/C-RAF kinase inhibitory effects: Design, synthesis, in vitro cell-based and oncogenic kinase assessments” (Eur J Med Chem, 2020)
Calls of active or inactive are those of the source. No cut-off for these calls is given here.

What was measured:
[1] = tested on: Panel NCI-60 (60 carcinoma cell lines); assay: Growth inhibition of human Panel NCI-60 (60 carcinoma cell lines) cells at 10 uM measured after 48 hrs by SRB assay relative to control; assay type: functional; conditions: read-out: GI
LOX IMVI = assay: Growth inhibition of human LOX IMVI cells at 10 uM measured after 48 hrs by SRB assay relative to control; assay type: functional; conditions: read-out: GI
MOLT-4 = assay: Growth inhibition of human MOLT-4 cells measured after 48 hrs by SRB assay; assay type: functional
A549 = assay: Growth inhibition of human A549 cells measured after 48 hrs by SRB assay; assay type: functional
EKVX = assay: Growth inhibition of human EKVX cells measured after 48 hrs by SRB assay; assay type: functional
HOP-92 = assay: Growth inhibition of human HOP-92 cells measured after 48 hrs by SRB assay; assay type: functional
NCI-H23 = assay: Growth inhibition of human NCI-H23 cells measured after 48 hrs by SRB assay; assay type: functional
NCI-H322M = assay: Growth inhibition of human NCI-H322M cells measured after 48 hrs by SRB assay; assay type: functional
NCI-H460 = assay: Growth inhibition of human NCI-H460 cells measured after 48 hrs by SRB assay; assay type: functional
COLO 205 = assay: Growth inhibition of human COLO 205 cells measured after 48 hrs by SRB assay; assay type: functional
HCC 2998 = assay: Growth inhibition of human HCC 2998 cells measured after 48 hrs by SRB assay; assay type: functional
HT-29 = assay: Growth inhibition of human HT-29 cells measured after 48 hrs by SRB assay; assay type: functional
SF-268 = assay: Growth inhibition of human SF-268 cells measured after 48 hrs by SRB assay; assay type: functional
M14 = assay: Growth inhibition of human M14 cells measured after 48 hrs by SRB assay; assay type: functional
MDA-MB-435 = assay: Growth inhibition of human MDA-MB-435 cells measured after 48 hrs by SRB assay; assay type: functional
SK-MEL-2 = assay: Growth inhibition of human SK-MEL-2 cells measured after 48 hrs by SRB assay; assay type: functional
SK-MEL-28 = assay: Growth inhibition of human SK-MEL-28 cells measured after 48 hrs by SRB assay; assay type: functional
UACC-257 = assay: Growth inhibition of human UACC-257 cells measured after 48 hrs by SRB assay; assay type: functional
IGROV-1 = assay: Growth inhibition of human IGROV-1 cells measured after 48 hrs by SRB assay; assay type: functional
OVCAR-4 = assay: Growth inhibition of human OVCAR-4 cells measured after 48 hrs by SRB assay; assay type: functional
786-0 = assay: Growth inhibition of human 786-0 cells measured after 48 hrs by SRB assay; assay type: functional
CAKI-1 = assay: Growth inhibition of human CAKI-1 cells measured after 48 hrs by SRB assay; assay type: functional
RXF 393 = assay: Growth inhibition of human RXF 393 cells measured after 48 hrs by SRB assay; assay type: functional
SN12C = assay: Growth inhibition of human SN12C cells measured after 48 hrs by SRB assay; assay type: functional
TK-10 = assay: Growth inhibition of human TK-10 cells measured after 48 hrs by SRB assay; assay type: functional
PC-3 = assay: Growth inhibition of human PC-3 cells measured after 48 hrs by SRB assay; assay type: functional
DU-145 = assay: Growth inhibition of human DU-145 cells measured after 48 hrs by SRB assay; assay type: functional
MCF7 = assay: Growth inhibition of human MCF7 cells measured after 48 hrs by SRB assay; assay type: functional
Hs-578T = assay: Growth inhibition of human Hs-578T cells measured after 48 hrs by SRB assay; assay type: functional
[2] = Cytotoxicity against African green monkey Vero cells assessed as cell viability at 10 uM measured after 48 hrs by EZ-Cytox assay relative to control; assay type: cell-based; conditions: chlorocebus sabaeus, read-out: Activity
HCT-116 [3] = assay: Induction of apoptosis in human HCT-116 cells assessed as necrotic cells at 1.25 uM measured after 24 hrs by Annexin-V Alexa Fluor488/propidium iodide staining based flow cytometry (reference value: 4.6%); assay type: functional
HCT-116 [4] = assay: Induction of apoptosis in human HCT-116 cells assessed as early apoptotic cells at 5 uM measured after 24 hrs by Annexin-V Alexa Fluor488/propidium iodide staining based flow cytometry (reference value: 6.3%); assay type: functional
HCT-116 [5] = assay: Induction of apoptosis in human HCT-116 cells assessed as late apoptotic cells at 5 uM measured after 24 hrs by Annexin-V Alexa Fluor488/propidium iodide staining based flow cytometry (reference value: 1%); assay type: functional
HCT-116 [6] = assay: Induction of apoptosis in human HCT-116 cells assessed as late apoptotic cells at 1.25 uM measured after 48 hrs by Annexin-V Alexa Fluor488/propidium iodide staining based flow cytometry (reference value: 2.2%); assay type: functional
HCT-116 [7] = assay: Induction of apoptosis in human HCT-116 cells assessed as viable cells at 2.5 uM measured after 48 hrs by Annexin-V Alexa Fluor488/propidium iodide staining based flow cytometry (reference value: 82.3%); assay type: functional; conditions: read-out: Activity
HCT-116 [8] = assay: Induction of apoptosis in human HCT-116 cells assessed as late apoptotic cells at 2.5 uM measured after 48 hrs by Annexin-V Alexa Fluor488/propidium iodide staining based flow cytometry (reference value: 2.2%); assay type: functional
HCT-116 [9] = assay: Induction of apoptosis in human HCT-116 cells assessed as necrotic cells at 2.5 uM measured after 48 hrs by Annexin-V Alexa Fluor488/propidium iodide staining based flow cytometry (reference value: 7.7%); assay type: functional
HCT-116 [10] = assay: Induction of apoptosis in human HCT-116 cells assessed as viable cells at 5 uM measured after 48 hrs by Annexin-V Alexa Fluor488/propidium iodide staining based flow cytometry (reference value: 82.3%); assay type: functional; conditions: read-out: Activity
HCT-116 [11] = assay: Induction of apoptosis in human HCT-116 cells assessed as early apoptotic cells at 5 uM measured after 48 hrs by Annexin-V Alexa Fluor488/propidium iodide staining based flow cytometry (reference value: 7.7%); assay type: functional
Sus scrofa = species: Sus scrofa; assay: Induction of porcine brain tubulin polymerization at 10 uM measured at 30 secs interval for 60 mins by fluorescence assay; assay type: tissue-based
[12] = molecular target: Serine/threonine-protein kinase B-raf (Homo sapiens, UniProt P15056); assay: Inhibition of human BRAF using MEK1 (K97R) as substrate in presence of [gamma-33P]ATP by scintillation counting method
[13] = molecular target: Serine/threonine-protein kinase B-raf (Homo sapiens, UniProt P15056, V600E); assay: Inhibition of human BRAF V600E mutant using MEK1 (K97R) as substrate in presence of [gamma-33P]ATP by scintillation counting method
Homo sapiens = species: Homo sapiens; assay: Selectivity ratio of IC50 for inhibition of human BRAF V600E mutant to IC50 for inhibition of human CRAF
[14] = read-out: LC50 (the source's name)

Serine/threonine-protein kinase B-raf (Homo sapiens, UniProt P15056, V600E), sequence (P15056 2-766 V600E limits assumed): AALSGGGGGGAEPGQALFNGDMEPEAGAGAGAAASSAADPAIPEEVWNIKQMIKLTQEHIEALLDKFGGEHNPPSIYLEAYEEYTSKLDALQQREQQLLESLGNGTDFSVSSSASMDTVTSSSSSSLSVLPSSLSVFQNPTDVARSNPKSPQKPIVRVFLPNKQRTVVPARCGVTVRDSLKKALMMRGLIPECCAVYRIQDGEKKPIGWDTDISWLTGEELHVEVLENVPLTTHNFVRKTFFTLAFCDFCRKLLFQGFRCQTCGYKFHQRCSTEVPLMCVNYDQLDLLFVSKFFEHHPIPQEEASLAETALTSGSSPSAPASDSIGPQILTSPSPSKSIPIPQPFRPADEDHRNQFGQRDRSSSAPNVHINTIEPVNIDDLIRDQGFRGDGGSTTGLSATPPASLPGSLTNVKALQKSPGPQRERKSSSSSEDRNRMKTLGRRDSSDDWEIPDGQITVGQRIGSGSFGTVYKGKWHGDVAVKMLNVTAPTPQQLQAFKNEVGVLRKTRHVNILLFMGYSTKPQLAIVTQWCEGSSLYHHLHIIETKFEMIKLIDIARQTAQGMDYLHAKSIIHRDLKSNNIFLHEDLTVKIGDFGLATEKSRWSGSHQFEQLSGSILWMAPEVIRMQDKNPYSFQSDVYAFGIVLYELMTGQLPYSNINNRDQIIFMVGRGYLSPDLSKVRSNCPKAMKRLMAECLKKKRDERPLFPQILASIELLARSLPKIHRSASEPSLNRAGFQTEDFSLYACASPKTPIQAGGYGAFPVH
Serine/threonine-protein kinase B-raf (Homo sapiens, UniProt P15056), sequence (P15056 whole entry): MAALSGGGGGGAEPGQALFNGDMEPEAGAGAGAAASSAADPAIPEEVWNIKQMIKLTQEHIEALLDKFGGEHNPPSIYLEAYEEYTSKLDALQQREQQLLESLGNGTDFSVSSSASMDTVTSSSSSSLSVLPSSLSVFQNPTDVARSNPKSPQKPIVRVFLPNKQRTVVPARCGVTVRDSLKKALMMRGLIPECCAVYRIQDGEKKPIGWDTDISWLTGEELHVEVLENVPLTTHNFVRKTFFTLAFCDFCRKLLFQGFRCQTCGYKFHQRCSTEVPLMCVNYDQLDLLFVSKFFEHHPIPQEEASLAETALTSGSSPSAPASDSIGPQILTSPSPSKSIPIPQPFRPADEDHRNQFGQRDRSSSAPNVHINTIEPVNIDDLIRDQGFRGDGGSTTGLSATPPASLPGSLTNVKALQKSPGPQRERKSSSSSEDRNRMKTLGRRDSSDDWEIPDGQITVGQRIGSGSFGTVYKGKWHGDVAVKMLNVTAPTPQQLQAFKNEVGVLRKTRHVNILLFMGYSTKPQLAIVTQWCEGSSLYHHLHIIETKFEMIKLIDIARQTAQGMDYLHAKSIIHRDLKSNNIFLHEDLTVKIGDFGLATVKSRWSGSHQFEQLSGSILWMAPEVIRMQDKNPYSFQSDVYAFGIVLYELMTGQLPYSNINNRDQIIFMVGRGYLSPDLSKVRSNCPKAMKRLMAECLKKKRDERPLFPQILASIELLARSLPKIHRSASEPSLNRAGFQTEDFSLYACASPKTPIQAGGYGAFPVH

SMILES: CCN1CCN(c2cc(C(=O)Nc3cccc(Nc4ccc5c(OC)cccc5n4)c3)cc(C(F)(F)F)c2)CC1
- inhibition of growth at 10 µM [1]: 95%
- inhibition of growth at 10 µM (LOX IMVI): 194%
- GI50 (MOLT-4): 616 nM
- GI50 (A549): 1050 nM
- GI50 (EKVX): 3070 nM
- GI50 (HOP-92): 1260 nM
- TGI (HOP-92): 4660 nM
- CC50 (HOP-92; [14]): 16600 nM
- GI50 (NCI-H23): 3410 nM
- GI50 (NCI-H322M): 1330 nM
- GI50 (NCI-H460): 1340 nM
- GI50 (COLO 205): 654 nM
- GI50 (HCC 2998): 720 nM
- GI50 (HT-29): 572 nM
- TGI (HT-29): 1210 nM
- CC50 (HT-29; [14]): 2560 nM
- GI50 (SF-268): 1760 nM
- GI50 (M14): 668 nM
- TGI (M14): 1650 nM
- CC50 (M14; [14]): 5860 nM
- GI50 (MDA-MB-435): 1160 nM
- GI50 (SK-MEL-2): 5300 nM
- GI50 (SK-MEL-28): 846 nM
- GI50 (UACC-257): 1020 nM
- GI50 (IGROV-1): 924 nM
- LC50 (IGROV-1): 20000 nM
- TGI (IGROV-1): 5230 nM
- GI50 (OVCAR-4): 1570 nM
- GI50 (786-0): 3730 nM
- GI50 (CAKI-1): 917 nM
- GI50 (RXF 393): 918 nM
- GI50 (SN12C): 1390 nM
- GI50 (TK-10): 3470 nM
- GI50 (PC-3): 805 nM
- GI50 (DU-145): 1880 nM
- GI50 (MCF7): 679 nM
- LC50 (MCF7): 17600 nM
- TGI (MCF7): 2280 nM
- GI50 (Hs-578T): 3610 nM
- viability at 48 h, 10 µM [2]: 74.1%
- Activity (HCT-116 [3]): 0.4%
- Activity (HCT-116 [4]): 19.3%
- Activity (HCT-116 [5]): 0.8%
- Activity (HCT-116 [6]): 0.4%
- viability at 2.5 µM (HCT-116 [7]): 78.8%
- Activity (HCT-116 [8]): 1%
- Activity (HCT-116 [9]): 1.2%
- viability at 5 µM (HCT-116 [10]): 72%
- Activity (HCT-116 [11]): 26.8%
- Activity (Sus scrofa): Active
- IC50 [12]: 2230 nM
- IC50 [13]: 888 nM
- Ratio IC50 (Homo sapiens): 2
